Literature values as cited in publication PMC12281572.
Several values for one entry are separate records, joined by “and”; a condition that tells them apart may be missing. Equal entries are not always repeated.

test: FTIR, 4-fluorophenol as donor (the pK_BHX database, per the paper); conditions: CCl4; 25 C

First: CC(=O)C(C)=O
Second: CCSC(=O)OC
The “pK_BHX (log10 Kf of the 1:1 H-bond complex with 4-fluorophenol, by FTIR)” value of the first is lower: 0.23 log units for the first, 0.73 log units for the second.

Compared with CCN(CC)C(=O)SC, CCN(C(C)C)C(C)C is lower in “pK_BHX (log10 Kf of the 1:1 H-bond complex with 4-fluorophenol, by FTIR)” value: 1.56 log units for the first, 1.05 log units for the second.

First: NCc1cc(F)cc(F)c1
Second: Nc1cccc(F)c1
The “pK_BHX (log10 Kf of the 1:1 H-bond complex with 4-fluorophenol, by FTIR)” value of the first is higher: 1.28 log units for the first, 0.2 log units for the second.

First: CCOC(=O)c1ccc(N(C)C)cc1
Second: CC(=O)c1ccc(N(C)C)cc1
The “pK_BHX (log10 Kf of the 1:1 H-bond complex with 4-fluorophenol, by FTIR)” value of the first is lower: 1.45 log units for the first, 1.76 log units for the second.

First: CN(C)C(=S)c1ccc(N)cc1
Second: COc1ccc(C(=O)N(C)C)cc1
The “pK_BHX (log10 Kf of the 1:1 H-bond complex with 4-fluorophenol, by FTIR)” value of the first is lower: 1.33 log units for the first, 2.31 log units for the second.

Compared with Cc1ccncc1C, Cc1cccc(N(C)C)c1 is lower in “pK_BHX (log10 Kf of the 1:1 H-bond complex with 4-fluorophenol, by FTIR)” value: 2.24 log units for the first, 0.41 log units for the second.

Compared with CC(=NC(=S)N(C)C)N(C)C, CC(C)(C)C(=O)C(C)(C)C is lower in “pK_BHX (log10 Kf of the 1:1 H-bond complex with 4-fluorophenol, by FTIR)” value: 2.06 log units for the first, 0.96 log units for the second.

Going from Fc1cccc(C2=NCCC2)c1 to CC1=NCCC1, the “pK_BHX (log10 Kf of the 1:1 H-bond complex with 4-fluorophenol, by FTIR)” value rises from 1.66 log units to 2.59 log units.

Compared with CCOC(=O)C=Cc1ccccc1, NCc1ccccc1 is higher in “pK_BHX (log10 Kf of the 1:1 H-bond complex with 4-fluorophenol, by FTIR)” value: 1.14 log units for the first, 1.84 log units for the second.

First: COC(C(F)(F)F)C(F)(F)F
Second: N#Cc1cccc(C(F)(F)F)c1
The “pK_BHX (log10 Kf of the 1:1 H-bond complex with 4-fluorophenol, by FTIR)” value of the first is lower: -0.41 log units for the first, 0.53 log units for the second.

Compared with c1ncncn1, CC(=O)n1ccnc1 is higher in “pK_BHX (log10 Kf of the 1:1 H-bond complex with 4-fluorophenol, by FTIR)” value: 0.32 log units for the first, 1.86 log units for the second.

Going from c1ccc(Cc2ccccc2)cc1 to COc1ccc(N(C)C(=Nc2ccc(C)cc2)c2ccccc2)cc1, the “pK_BHX (log10 Kf of the 1:1 H-bond complex with 4-fluorophenol, by FTIR)” value rises from -0.41 log units to 1.63 log units.

Going from C1C2CC3CC1CC(C2)C31OC12C1CC3CC(C1)CC2C3 (stereo not drawn) to c1ccc(C2CCCCC2)cc1, the “pK_BHX (log10 Kf of the 1:1 H-bond complex with 4-fluorophenol, by FTIR)” value falls from 1.44 log units to -0.32 log units.

Compared with Cc1cc(C(C)(C)C)nc(C(C)(C)C)c1, CC(C)(C)c1cccc(C(C)(C)C)n1 is lower in “pK_BHX (log10 Kf of the 1:1 H-bond complex with 4-fluorophenol, by FTIR)” value: -0.45 log units for the first, -0.54 log units for the second.

Going from CN1CN(C)CN(C)C1 to CN1CCCN(C)C1=O, the “pK_BHX (log10 Kf of the 1:1 H-bond complex with 4-fluorophenol, by FTIR)” value rises from 1.58 log units to 2.79 log units.

Going from CCCCS(=O)(=O)CCCC to CCCCCCCCO, the “pK_BHX (log10 Kf of the 1:1 H-bond complex with 4-fluorophenol, by FTIR)” value falls from 1.22 log units to 1.04 log units.

Compared with COc1ccc(C(=O)c2ccc(OC)cc2)cc1, CC(=Nc1ccc(Br)cc1)N(C)c1ccc(C)cc1 is lower in “pK_BHX (log10 Kf of the 1:1 H-bond complex with 4-fluorophenol, by FTIR)” value: 1.49 log units for the first, 1.43 log units for the second.

Compared with O, C=CCSC is lower in “pK_BHX (log10 Kf of the 1:1 H-bond complex with 4-fluorophenol, by FTIR)” value: 0.65 log units for the first, 0.08 log units for the second.

Going from c1ccsc1 to C1CSC1, the “pK_BHX (log10 Kf of the 1:1 H-bond complex with 4-fluorophenol, by FTIR)” value rises from -0.5 log units to 0.13 log units.

Going from C1OCOCO1 to C1CNCCN1, the “pK_BHX (log10 Kf of the 1:1 H-bond complex with 4-fluorophenol, by FTIR)” value rises from 0.02 log units to 2.11 log units.

First: CCS
Second: C#CCN
The “pK_BHX (log10 Kf of the 1:1 H-bond complex with 4-fluorophenol, by FTIR)” value of the first is lower: -0.16 log units for the first, 1.56 log units for the second.

Compared with CCCCCCCCP(=O)(CCCCCCCC)CCCCCCCC, CN1CCCNC1=S is lower in “pK_BHX (log10 Kf of the 1:1 H-bond complex with 4-fluorophenol, by FTIR)” value: 3.59 log units for the first, 2.0 log units for the second.

For CC(=O)c1ccc(N=CN(C)C)cc1, the “pK_BHX (log10 Kf of the 1:1 H-bond complex with 4-fluorophenol, by FTIR)” value is listed as 1.7 log units and 1.52 log units.
